“And” between values parts separate entries of the source, which are not always exact repeats. Equal entries are not always repeated.
Biological target: T1, E. faecium DnaE (Enterococcus faecium, UniProt Q3XYP9)
T1 sequence (Q3XYP9 1-1104): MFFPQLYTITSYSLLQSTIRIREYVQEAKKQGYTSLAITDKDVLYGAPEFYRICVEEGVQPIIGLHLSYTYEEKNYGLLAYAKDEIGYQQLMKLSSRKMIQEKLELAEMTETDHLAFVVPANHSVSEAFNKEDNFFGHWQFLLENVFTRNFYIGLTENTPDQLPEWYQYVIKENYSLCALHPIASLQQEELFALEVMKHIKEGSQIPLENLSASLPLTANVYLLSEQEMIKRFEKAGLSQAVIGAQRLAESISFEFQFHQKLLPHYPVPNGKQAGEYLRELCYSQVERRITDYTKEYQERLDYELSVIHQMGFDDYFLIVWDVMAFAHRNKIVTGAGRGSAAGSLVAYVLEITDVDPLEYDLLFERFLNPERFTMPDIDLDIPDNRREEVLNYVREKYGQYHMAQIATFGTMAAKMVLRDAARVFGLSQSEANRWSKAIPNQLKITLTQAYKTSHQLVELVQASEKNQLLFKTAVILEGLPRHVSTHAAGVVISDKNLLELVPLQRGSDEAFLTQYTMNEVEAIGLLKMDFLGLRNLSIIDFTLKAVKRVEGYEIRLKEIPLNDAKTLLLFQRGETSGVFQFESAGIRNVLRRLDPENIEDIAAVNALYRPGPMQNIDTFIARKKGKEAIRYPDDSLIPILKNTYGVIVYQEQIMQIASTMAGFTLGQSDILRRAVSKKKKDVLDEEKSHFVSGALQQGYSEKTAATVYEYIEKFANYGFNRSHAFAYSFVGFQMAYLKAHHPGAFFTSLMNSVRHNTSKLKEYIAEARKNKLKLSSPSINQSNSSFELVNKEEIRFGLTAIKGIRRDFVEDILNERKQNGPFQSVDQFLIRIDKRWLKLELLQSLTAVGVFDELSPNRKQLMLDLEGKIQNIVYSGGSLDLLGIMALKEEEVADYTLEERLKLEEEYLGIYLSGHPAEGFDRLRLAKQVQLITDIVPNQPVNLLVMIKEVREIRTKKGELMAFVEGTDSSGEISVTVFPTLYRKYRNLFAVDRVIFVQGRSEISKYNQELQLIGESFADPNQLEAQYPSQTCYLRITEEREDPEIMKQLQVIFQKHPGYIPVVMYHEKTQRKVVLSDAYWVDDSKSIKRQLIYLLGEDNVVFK
Test: Real-time DNA primer extension assay
Type: biochemical
Conditions: for rate of activity (slope of fluorescence intensity change over time): Fig. 1f source data, E. faecium DnaE; for IC50: Fig. 1f, n = 3, ± SEM

| SMILES | rate of activity (slope of fluorescence intensity change over time) (inhibitor 2.5 uM) | rate of activity (slope of fluorescence intensity change over time) (inhibitor 4 uM) | rate of activity (slope of fluorescence intensity change over time) (inhibitor 12.5 uM) | rate of activity (slope of fluorescence intensity change over time) (inhibitor 20 uM) | rate of activity (slope of fluorescence intensity change over time) (inhibitor 30 uM) | rate of activity (slope of fluorescence intensity change over time) (inhibitor 45 uM) | rate of activity (slope of fluorescence intensity change over time) (inhibitor 67.5 uM) | rate of activity (slope of fluorescence intensity change over time) (inhibitor 100 uM) | IC50 [µM] | inhibition towards E. faecium DnaE lower than PolC (in vitro, DnaE versus PolC) |
| --- | --- | --- | --- | --- | --- | --- | --- | --- | --- | --- |
| O=c1[nH]c(NCc2ccc3c(c2)OC(F)(F)O3)nc2c(F)nn(CCO)c12 [ACX-801, 5-(((2,2-difluorobenzo[d][1,3]dioxol-5-yl)methyl)amino)-3-fluoro-1-(2-hydroxyethyl)-1,6-dihydro-7H-pyrazolo[4,3-d]pyrimidin-7-one] | 49.5 and 44.4 and 49.3 | 51.3 and 51.4 and 45.3 | 48.4 and 47.3 and 48.0 | 47.8 and 51.2 | 50.3 and 47.9 and 46.9 | 47.9 and 46.1 and 47.4 | 46.5 and 39.7 and 47.4 | 45.5 and 39.2 and 38.1 | > 100 |  |
| O=c1[nH]c(NCc2ccc(Cl)c(Cl)c2)nc2ncn(CCN3CCOCC3)c12 [IBZ, N^2-(3,4-dichlorobenzyl)-7-(2-[1-morpholinyl]ethyl)guanine] | 49.8 and 49.1 and 50.9 | 37.6 and 41.6 and 39.1 | 40.9 and 43.1 and 37.2 | 38.6 and 37.7 and 36.0 | 35.7 and 37.2 and 30.7 | 28.3 and 28.4 and 27.5 | 18.3 and 24.4 and 21.1 | 19.9 and 17.8 and 14.2 | 89.3 | ~ seven-fold |

— article PMC12592400, “A unique inhibitor conformation selectively targets the DNA polymerase PolC of Gram-positive priority pathogens” (Nature Communications, 2025)
